This is an account of results in patent US6861428B2, “Water-soluble phenylpyridazine compounds and compositions containing the same” (Kowa Co., Ltd., priority 2001, dated 2005).

SMILES strings stand for the structures. Read-outs that look alike come from different tables or passages of the source.

In data set [1] the test system is interleukin-1β production. In words: Inhibitory activity against interleukin-1β production (LPS-stimulated HL-60 cells, ELISA). The settings on record: lipopolysaccharide 10 μg/mL, 3 days. In kind it is cell-based. As to the method:
Inhibitory Activity Against Interleukin-1β Production
HL-60 cells were cultured for 4 days until confluence on RPMI 1640 medium with 10% fetal bovine serum (FBS) added thereto. The medium was centrifuged. The supernatant was discarded, and the cells were then suspended at 1×10^6 cells/mL on RPMI 1640 medium with 3% FBS, and lipopolysaccharide was added to give a final concentration of 10 μg/mL. The culture was inoculated at 1 mL/well to a 24-well plate. A sample compound was added at 1 μL/well, followed by culturing for 3 days. Three days later, the amount of interleukin-1β in each culture was determined by ELISA. Each IC50 value was determined by a comparison in yield with a control to which no test sample was added.
A general note: An ELISA detects its analyte on a solid surface through an enzyme-linked reagent.

Another data set can be described thus: Water solubility test. The following applies: for Solubility (%): purified water, from amount of water required for dissolution; for Dissolution in amount of added water: 100 mL purified water added. In kind it is physicochemical. As to the method: Each sample compound was weighed in the amount shown in Table 3, to which purified water was added in 0.05 mL aliquots. The solubility (%) of the compound was determined based on the amount of water required for its dissolution.

Data set [2] can be described thus: Oral absorbability test on rats and/or mice. In kind it is in vivo. The following applies: orally administered to mice and/or rats, as in Experiment 3, FIGS. 2 to 6. As to the method:
The compound of Example 83 and the comparative compound 3 were suspended at 2 mg/mL with a 0.5% MC solution in mortars, respectively, and were orally administered to male SD rats at 10 mg/5 mL/kg. Upon elapsed time of 0.25, 0.5, 1, 2, 4, 6 and 8 hours after the administration, blood samples were collected and then centrifuged to provide plasma samples. The plasma levels of the respective compounds were determined by HPLC. […] The compound of Example 83 is, therefore, useful as an orally dosable medicine.
In a similar manner as in Experiment 3, test compounds of Examples 23, 25, 143, 193, 245, 246, 247, 248 and 249 were orally administered to mice and/or rats to test their oral absorbability.

Where [3] appears, read: Homo sapiens, 72 h, Table 1, read-out: IL-1β production inhibiting activity IC50.
[4] abbreviates: Table 1, read-out: IL-1β production inhibiting activity IC50.
[5] abbreviates: Homo sapiens, 72 h, Table 2, read-out: IL-1β production inhibiting activity IC50.

As for `COc1ccc(-c2cc(CN3CCN(Cc4ccccc4)CC3)c(=O)n(CC3CC3)n2)cc1F.Cl.Cl` [Example 18, 4-(4-benzyl-1-piperazinyl)methyl-2-cyclopropylmethyl-6-(3-fluoro-4-methoxyphenyl)-2H-pyridazin-3-one dihydrochloride], in data set [1] (setting [3]), the half-maximal inhibitory concentration (IC50) turned out to be 5.4 µM. The “Solubility (%)” value in “Water solubility test” is on record as 1%.
In the case of `COc1ccc(-c2cc(CN3CCNCC3)c(=O)n(CC3CC3)n2)cc1F.Cl.Cl` [Example 21, 2-cyclopropylmethyl-6-(3-fluoro-4-methoxyphenyl)-4-(1-piperazinyl)methyl-2H-pyridazin-3-one dihydrochloride], the half-maximal inhibitory concentration (IC50) in data set [1] (setting [3]) is 1.01 µM. Also, in the data set “Water solubility test”, the “Solubility (%)” value is on record as above 20%.
In the case of `COc1ccc(-c2cc(CN(CCO)CCO)c(=O)n(CC3CC3)n2)cc1F.Cl` [Example 23, 4-N,N-bis(2-hydroxyethyl)aminomethyl-2-cyclopropylmethyl-6-(3-fluoro-4-methoxyphenyl)-2H-pyridazin-3-one hydrochloride], the IC50 in data set [1] (setting [4]) is 12.3 µM. Moreover, the Oral absorbability entry in data set [2] is on record as “good absorbability”. In “Water solubility test”, the “Solubility (%)” value stood at 10%.
As for `Cc1ccc(-c2cc(CN(C)C)c(=O)n(CC(C)C)n2)cc1.Cl` [Example 45, 4-dimethylaminomethyl-2-isobutyl-6-(4-methylphenyl)-2H-pyridazin-3-one hydrochloride], the IC50 in data set [1] (setting [3]) turned out to be 6.21 µM. The “Solubility (%)” value in the data set “Water solubility test” stood at 4%.
In the same order, the values of `CCN(CC)Cc1cc(-c2ccc(C)cc2)nn(CC(C)C)c1=O.Cl` [Example 47, 4-diethylaminomethyl-2-isobutyl-6-(4-methylphenyl)-2H-pyridazin-3-one hydrochloride] are 5.2 µM and above 20%.
For the compound `Cc1cc(-c2cc(CN(C)C)c(=O)n(CC(C)C)n2)ccc1F.Cl` [Example 89, 4-dimethylaminomethyl-6-(4-fluoro-3-methylphenyl)-2-isobutyl-2H-pyridazin-3-one hydrochloride], the 50% inhibitory concentration (IC50) in data set [1] (setting [3]) was found to be 5.5 µM. Further, the “Solubility (%)” value in “Water solubility test” was above 20%.
On to `CC(C)Cn1nc(-c2ccc(F)c(F)c2)cc(CN(CCO)CCO)c1=O.Cl` [Example 108, 4-N,N-bis(2-hydroxyethyl)aminomethyl-6-(3,4-difluorophenyl)-2-isobutyl-2H-pyridazin-3-one hydrochloride], for which the IC50 in data set [1] (setting [4]) worked out at 3.44 µM. Besides, in “Water solubility test”, the “Solubility (%)” value was above 20%.
`CSc1ccc(-c2cc(CN3CCN(C)CC3)c(=O)n(CC3CC3)n2)cc1.Cl.Cl` [Example 149, 2-cyclopropylmethyl-4-(4-methyl-1-piperazinyl)methyl-6-[4-(methylthio)phenyl]-2H-pyridazin-3-one dihydrochloride]: the melting point lay in the range of 234.6 to 239.2 °C. Also, the IC50 in data set [1] (setting [3]) amounted to 1.63 µM. In addition, in the data set “Water solubility test”, the “Solubility (%)” value is on record as above 10%.
Consider `COc1ccc(-c2cc(CN)c(=O)n(CC3CCCC3)n2)cc1F.Cl` [Example 188, 4-aminomethyl-2-cyclopentylmethyl-6-(3-fluoro-4-methoxyphenyl)-2H-pyridazin-3-one hydrochloride], for which, in “Water solubility test”, the “Solubility (%)” value came out at 0.08%.
Take `COc1ccc(-c2cc(CN3CCNCC3)c(=O)n(Cc3ccc(F)cc3)n2)cc1F.Cl.Cl` [Example 193, 2-(4-fluorobenzyl)-6-(3-fluoro-4-methoxyphenyl)-4-(1-piperazinyl)methyl-2H-pyridazin-3-one dihydrochloride]: the Oral absorbability entry in data set [2] was “good absorbability”. For the same compound, the “Solubility (%)” value in “Water solubility test” is given as 5%.
For `COc1ccc(-c2cc(CN)c(=O)n(Cc3ccc(F)cc3)n2)cc1F.Cl` [Example 195, 4-aminomethyl-2-(4-fluorobenzyl)-6-(3-fluoro-4-methoxyphenyl)-2H-pyridazin-3-one hydrochloride], the “Solubility (%)” value in “Water solubility test” was found to be 0.2%.
The same measure, in the same setting: then `COc1ccc(-c2cc(CN)c(=O)n(Cc3ccc(Cl)cc3)n2)cc1F.Cl` [Example 206, 4-aminomethyl-2-(4-chlorobenzyl)-6-(3-fluoro-4-methoxyphenyl)-2H-pyridazin-3-one hydrochloride], with 0.06%.
`COc1ccc(-c2cc(CN(C)C)c(=O)n(Cc3ccc(F)c(F)c3)n2)cc1F` [Example 208, 2-(3,4-difluorobenzyl)-4-dimethylaminomethyl-6-(3-fluoro-4-methoxyphenyl)-2H-pyridazin-3-one] registered a melting point of 129.9 to 130.4 °C. The IC50 in data set [1] (setting [5]) was 6.1 µM.
As for `COc1ccc(-c2cc(CN3CCN(C)CC3)c(=O)n(CC=Cc3ccc(Cl)cc3)n2)cc1F` [Example 209, 2-(4-chlorocinnamyl)-6-(3-fluoro-4-methoxyphenyl)-4-(4-methyl-1-piperazinyl)methyl-2H-pyridazin-3-one], the melting point was 123.9 to 125.5 °C. In addition, the IC50 in data set [1] (setting [5]) was 2.8 µM.
`COc1ccc(-c2cc(CCCN3CCNCC3)c(=O)n(CC3CC3)n2)cc1F.Cl.Cl` [Example 214, 2-cyclopropylmethyl-6-(3-fluoro-4-methoxyphenyl)-4-[3-(1-piperazinyl)propyl]-2H-pyridazin-3-one dihydrochloride]: the “Solubility (%)” value in the data set “Water solubility test” came out at 10%.
Still for that read-out and setting: the same measure for `COc1ccc(-c2cc(CCCN)c(=O)n(CC3CC3)n2)cc1F.Cl` [Example 217, 4-(3-aminopropyl)-2-cyclopropylmethyl-6-(3-fluoro-4-methoxyphenyl)-2H-pyridazin-3-one hydrochloride]: 10%.
For `Cc1cc(-c2cc(CN3CCN(C)CC3)c(=O)n(Cc3ccc(Cl)cc3)n2)ccc1F` [Example 222, 2-(4-chlorobenzyl)-6-(4-fluoro-3-methylphenyl)-4-(4-methyl-1-piperazinyl)methyl-2H-pyridazin-3-one], the melting point was in the range of 133.3 to 133.8 °C. The IC50 in data set [1] (setting [5]) turned out to be 5.8 µM.
In the same order, the values of `Cc1cc(-c2cc(CCCN)c(=O)n(Cc3ccccc3Cl)n2)ccc1F` [Example 227, 4-(3-aminopropyl)-2-(2-chlorobenzyl)-6-(4-fluoro-3-methylphenyl)-2H-pyridazin-3-one] are 80 to 85 °C and 5.2 µM.
As to `COc1ccc(-c2cc(CN3CCN(C)CC3)c(=O)n(Cc3ccc(F)c(F)c3)n2)cc1F.Cl.Cl` [Example 245, 2-(3,4-difluorobenzyl)-6-(3-fluoro-4-methoxyphenyl)-4-(4-methyl-1-piperazinyl)methyl-2H-pyridazin-3-one dihydrochloride], in data set [2], the Oral absorbability entry is “good absorbability”. In “Water solubility test”, the “Solubility (%)” value stood at 10%.
In the same order, the values of `COc1ccc(-c2cc(CN(C)C)c(=O)n(Cc3ccc(F)c(F)c3)n2)cc1F.Cl` [Example 246, 2-(3,4-difluorobenzyl)-4-dimethylaminomethyl-6-(3-fluoro-4-methoxyphenyl)-2H-pyridazin-3-one hydrochloride] are “good absorbability” and 2%.
On to `Cc1cc(-c2cc(CN3CCN(C)CC3)c(=O)n(CCCc3ccc(Cl)cc3)n2)ccc1F.Cl.Cl` [Example 247, 2-[3-(4-chlorophenyl)propyl]-6-(4-fluoro-3-methylphenyl)-4-(4-methyl-1-piperazinyl)methyl-2H-pyridazin-3-one dihydrochloride], for which the Oral absorbability result in data set [2] is on record as “good absorbability”. Moreover, the “Solubility (%)” value in the data set “Water solubility test” is 10%.
In the same order, the values of `COc1ccc(-c2cc(CN3CCN(C)CC3)c(=O)n(CC=Cc3ccc(Cl)cc3)n2)cc1F.Cl.Cl` [Example 248, 2-(4-chlorocinnamyl)-6-(3-fluoro-4-methoxyphenyl)-4-(4-methyl-1-piperazinyl)methyl-2H-pyridazin-3-one dihydrochloride] are “good absorbability” and 0.06%.
With `COc1ccc(-c2cc(CN3CCN(CCO)CC3)c(=O)n(CC=Cc3ccc(Cl)cc3)n2)cc1F.Cl.Cl` [Example 249, 2-(4-chlorocinnamyl)-6-(3-fluoro-4-methoxyphenyl)-4-[4-(2-hydroxyethyl)-1-piperazinyl]methyl-2H-pyridazin-3-one dihydrochloride], in data set [2], the Oral absorbability entry is recorded as “good absorbability”. For the same compound, in “Water solubility test”, the “Solubility (%)” value amounted to 0.03%.
`CCOC(=O)Nc1cc(-c2ccc(OC)cc2)nn(C/C=C/c2ccc(Cl)cc2)c1=O` [compound 1, reference compound]: in “Water solubility test”, the “Dissolution in amount of added water” value is given as “(insoluble)” and the “Solubility (%)” value was below 0.001%.
In the same order, the values of `CNC(=O)c1cc(-c2ccc(OC)cc2)nn(CC(C)C)c1=O` [compound 2, reference compound] are “(insoluble)” and below 0.001%.
As to `COc1ccc(-c2cc(C(=O)O)c(=O)n(C/C=C/c3ccc(Cl)cc3)n2)cc1` [compound 4, reference compound], in the data set “Water solubility test”, the “Dissolution in amount of added water” value is recorded as “(insoluble)” and the “Solubility (%)” value is recorded as below 0.001%.

One may read the IC50 as the concentration at which inhibition is half-maximal. For orientation: melting point means the temperature, or range, at which the solid turns liquid.
